Experimental findings from publication PMC13267113 (npj Drug Discovery, 2025) are described below.

The structures appear in SMILES notation. Converted amounts (≈) assume the structure as drawn.

Data set [1] deals with T1, human DNA topoisomerase IIα (TOP2A) (Homo sapiens, UniProt P11388).
T1 construct: purchased Inspiralis
The data set can be described thus: human topoisomerase II alpha decatenation assay. The data set is classed as biochemical. As to conditions: n = 3, read-out: IC50 against TOP2A.
Procedure: Inhibition of topoisomerase activity was examined using the human topoisomerase II alpha decatenation assay kit (Inspiralis) as indicated by the manufacturer. Briefly, a compound dilution series was prepared in DMSO. Water, dilution buffer, assay buffer, plasmid and enzyme were mixed with the compound solution and incubated at 37 °C for 30 min. A positive control (100% activity) was prepared without the compound, and a negative control (0% activity) was prepared without the compound and the enzyme. The reaction was stopped by adding gSTEB-buffer and chloroform/isoamylalcohol (24:1 v/v). The samples were vortexed and centrifuged before running gel electrophoresis. The gel was stained with ethidium bromide and imaged using a Fusion Fx gel imager (Vilber Lourmat). Subsequent analysis was done using ImageJ and GraphPad Prism (Version 10.0.2).

For a further data set, the system named is HepG2 (human, liver). Nature of the data set: MTT cytotoxicity HepG2. In kind it is cell-based. To be noted: 72 h, n = 3. On the procedure: (§1) All cell types were cultivated at 37 °C with 5% CO2. HepG2, HEK293, HCT116, CHO-K1, HeLa-CCL-2 and Huh-7.5 were purchased from ATCC. The respective cell media (Gibco) were supplemented with 10% FBS (Gibco) before usage. Cells were used between passages #5 and #30. To obtain biological repeats, cells were split separately for at least two passages.
(§2) Cells were washed with PBS and 0.5 mL trypsin was added. Afterwards, cells were incubated for 5 min before adding 10 mL medium containing 10% FBS. Per well, 120 µL cell suspension (5 × 10^4 cells/mL) was seeded in transparent 96-well cell bind plates and incubated for 2 h (37 °C, 5% CO2). A dilution series (1:3) of test compounds was prepared in respective media containing 10% FBS and added (60 µL) to the prepared cell plate. Cells were incubated for a further 72 h (37 °C, 5% CO2). Next, 20 µL MTT (5 mg/mL in PBS) was added to each well and incubated for 2 h (37 °C, 5% CO2). The wells were emptied and 100 µL isopropanol/10 N HCl (1000:4) per well was added.
(§3) The plates were analyzed by measuring the absorbance at 570 nm (plate reader Infinite® 200 Pro, Tecan). After normalization of data to the respective solvent controls, the calculated percentage of growth inhibition was plotted using GraphPad Prism software (version 10.0.2).

Another data set deals with HEK293 (human, kidney). Nature of the data set: MTT cytotoxicity HEK293. The data set is classed as cell-based. To be noted: HEK293, MTT, 72 h, n = 3, read-out: IC50 HEK293 (human, kidney). On the procedure:
as §1, §2, §3

A further data set deals with HCT116 (human, colon). Nature of the data set: MTT cytotoxicity HCT116. The data set is classed as cell-based. As to conditions: HCT-116, 72 h, n = 3. Here is the method:
as §1, §2, §3

The subject of a further data set is CHO-K1 (hamster, ovary). The data set can be described thus: MTT cytotoxicity CHO-K1. In kind it is cell-based. As to conditions: CHO-K1, 72 h, n = 3. Here is the method:
as §1, §2, §3

Another data set deals with U-2 OS cells. The data set can be described thus: Mitochondrial superoxide formation (MitoSOX Red). As to conditions: n = 6. The data set is classed as cell-based, human. On the procedure:
CYS was tested for its potential to induce oxidative stress in U-2 OS cells. Therefore, 120 µL of a cell suspension in McCoy’s (+10% FBS) containing 5 × 10^4 cells/mL were seeded into black 96-well imaging plate (BD Falcon). The plates were incubated for two days (37 °C, 5% CO2) until the cells reached approximately 70% confluence. Subsequently, the cells were washed with HBSS buffer, prior to adding CYS (20 µM) and the ROS inducer menadione (50 µM) as positive control, along with the staining solution (HBSS, calcium, magnesium, 5 µM MitoSOX red and 10 µg/mL Hoechst (Thermo)). To check for ROS protective properties, menadione (50 µM) was added directly to the staining solution. […] Afterwards, the cells were washed twice with HBSS. The cells were imaged using an automated fluorescence microscope (Celldiscoverer 7, Zeiss) (excitation: […]) to analyze the fluorescence intensity of the superoxide tracker MitoSOX red. The experiment was carried out with six replicates per condition. Quantification was done by high-content image analysis using the ZEN software (version 3.4, blue edition, Zeiss). Data presentation was done using GraphPad Prism (version 10.0.3) with ordinary one-way ANOVA including multiple comparisons to the control group for statistical analysis of the sample without ROS induction via menadione in the staining solution. Multiple unpaired t test was used to compare samples for ROS protective properties, which were incubated with menadione in the staining solution.

Data set [2] can be described thus: Metabolic stability in mouse liver microsomes. In kind it is in vitro ADME. To be noted: pooled mouse liver microsomes, 0.5 mg/mL microsomes, NADPH. On the procedure:
The metabolic stability of testosterone, verapamil and ketoconazole was determined in parallel to confirm the enzymatic activity of mouse liver microsomes. For combination experiments, cobicistat was added to the incubation mixture together with test compounds. […] Concentration of the remaining test compound at the different time points was analyzed by HPLC-MS/MS (Vanquish Flex coupled to a TSQ Altis Plus, Thermo Fisher, Dreieich, Germany) and used to determine half-life (t1/2).

A short description of data set [3]: Metabolic stability in mouse hepatocytes. The data set is classed as in vitro ADME. On the procedure: For the evaluation of combined phase I and phase II metabolic stability, the compound (1 μM) was incubated with 0.25 × 10^6 cells/mL of pooled mouse hepatocytes (Xenotech, Kansas City, USA). Cells were thawed in Leibovitz’s L-15 medium without phenol red (ThermoFisher Scientific, Waltham, USA). Briefly, cells were transferred into 50 mL of medium, followed by centrifugation at 55 g for 6 min. Supernatant was discarded, and the cell count was determined after gently resuspending the cell pellet in 1mL of medium. Hepatocytes were diluted to 0.5 × 10^6 cells/mL and incubated at 37 °C, 700 rpm for 10 min, to achieve the desired final cell count after addition of an equal volume of test compounds in medium, leading to a final test concentration of 1 µM at 1% DMSO. […] For the determination of metabolism in the presence of cobicistat, this drug was added together with test compounds in the desired concentration range. The metabolic stability of testosterone, verapamil, ketoconazole and 7-hydroxycoumarine were determined in parallel to confirm the enzymatic activity of mouse hepatocytes. […] Concentration of the remaining test compound at the different time points was analyzed by HPLC-MS/MS (Vanquish Flex coupled to a TSQ Altis Plus, Thermo Fisher, Dreieich, Germany) and used to determine half-life (t1/2). Intrinsic clearance was calculated as follows:2 CLintµL/min×10^6cells=Incubation volumeµL×ln(2)/Cells in incubation mixture[10^6]×t1/2
For metabolite identification studies, test compounds were incubated at 10 µM final concentration and samples were analyzed using HPLC-HRMS (Ultimate 3000 coupled to a Q Exactive Focus, Thermo Fisher, Dreieich, Germany). […] Blank samples using DMSO were run in parallel for background subtraction. Sample processing for metabolite identification was performed using Compound Discoverer 3.2 (Thermo Fisher, Dreieich, Germany). Metabolites were identified based on mass shifts and feasibility of the metabolic reaction, also in view of MS peak intensities over time.

Data set [4] is described as follows: Mouse plasma protein binding. In kind it is in vitro ADME. As to conditions: read-out: Mouse PPB (converted).
A short description of another data set: physchem. As to conditions: zebrafish embryo incubation medium, aqueous buffer, kinetic from dmso stock.

T1 sequence (P11388 whole entry): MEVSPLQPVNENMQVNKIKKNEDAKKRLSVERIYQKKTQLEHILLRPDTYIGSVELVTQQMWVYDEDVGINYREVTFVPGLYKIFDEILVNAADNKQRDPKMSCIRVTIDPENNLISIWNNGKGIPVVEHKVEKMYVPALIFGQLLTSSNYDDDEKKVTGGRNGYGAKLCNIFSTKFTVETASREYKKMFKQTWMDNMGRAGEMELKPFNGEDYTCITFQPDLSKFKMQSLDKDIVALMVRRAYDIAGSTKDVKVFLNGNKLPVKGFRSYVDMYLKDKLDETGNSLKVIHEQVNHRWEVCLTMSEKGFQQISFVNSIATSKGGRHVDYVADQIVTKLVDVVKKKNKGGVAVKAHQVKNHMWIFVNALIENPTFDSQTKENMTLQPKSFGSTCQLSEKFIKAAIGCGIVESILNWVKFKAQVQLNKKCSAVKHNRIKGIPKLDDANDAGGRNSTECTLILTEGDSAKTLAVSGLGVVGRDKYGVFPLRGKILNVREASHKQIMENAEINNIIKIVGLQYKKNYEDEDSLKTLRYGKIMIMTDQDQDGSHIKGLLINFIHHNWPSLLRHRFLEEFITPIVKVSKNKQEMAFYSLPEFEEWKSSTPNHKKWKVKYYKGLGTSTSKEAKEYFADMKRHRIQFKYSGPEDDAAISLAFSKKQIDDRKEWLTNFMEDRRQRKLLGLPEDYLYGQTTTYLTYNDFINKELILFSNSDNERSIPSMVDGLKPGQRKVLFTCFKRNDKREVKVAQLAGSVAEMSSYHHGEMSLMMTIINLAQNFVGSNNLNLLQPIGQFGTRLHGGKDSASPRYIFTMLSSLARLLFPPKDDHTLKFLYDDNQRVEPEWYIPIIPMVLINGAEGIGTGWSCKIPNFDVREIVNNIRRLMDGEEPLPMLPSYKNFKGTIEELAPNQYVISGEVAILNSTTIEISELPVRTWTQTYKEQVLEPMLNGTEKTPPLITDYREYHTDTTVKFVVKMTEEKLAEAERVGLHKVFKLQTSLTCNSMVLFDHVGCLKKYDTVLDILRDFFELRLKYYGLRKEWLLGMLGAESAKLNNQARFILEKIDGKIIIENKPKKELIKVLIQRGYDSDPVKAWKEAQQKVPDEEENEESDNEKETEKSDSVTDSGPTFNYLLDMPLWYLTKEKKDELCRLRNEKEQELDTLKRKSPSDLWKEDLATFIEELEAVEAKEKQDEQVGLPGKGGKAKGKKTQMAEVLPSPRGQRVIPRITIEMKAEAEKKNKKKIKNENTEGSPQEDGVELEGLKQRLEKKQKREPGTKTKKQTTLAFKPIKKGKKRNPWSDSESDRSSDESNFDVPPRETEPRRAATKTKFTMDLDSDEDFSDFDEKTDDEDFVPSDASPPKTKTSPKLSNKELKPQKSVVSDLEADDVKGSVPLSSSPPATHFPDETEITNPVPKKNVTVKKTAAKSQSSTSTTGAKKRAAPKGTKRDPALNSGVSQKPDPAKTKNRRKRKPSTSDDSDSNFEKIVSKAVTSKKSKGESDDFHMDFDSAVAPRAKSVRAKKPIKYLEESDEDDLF

As to `CO[C@H](C(N)=O)[C@H](NC(=O)c1ccc(NC(=O)c2ccc(C#N)cc2)cc1)C(=O)Nc1ccc(C(=O)Nc2ccc(C(=O)Nc3ccc(C(=O)O)cc3)c(O)c2OC(C)C)cc1` [CN-861-2], the IC50 in data set [1] is 6.26 ± 4.69 µM; with HepG2 (human, liver) it was over 20 µM; in the data set on HEK293 (human, kidney) it was over 20 µM; in the data set on HCT116 (human, colon), over 20 µM; in the data set with CHO-K1 (hamster, ovary), over 20 µM. For the same compound, the “basal superoxide radical levels vs DMSO control” value with U-2 OS cells (20 µM, MitoSOX Red, no menadione) was “decrease of superoxide radical levels”. Besides, in the data set with U-2 OS cells (CYS 20 µM + menadione 50 µM), the “menadione-induced superoxide formation on co-treatment” value is on record as “slight yet statistically significant increase in superoxide production”. The microsomal CLint at 1 μM in [2] (read-out: MLM Clint) was under 11.6 µL/min/mg. Moreover, the half-life at 1 µM in data set [2] (read-out: MLM t1/2) was over 2 h; in data set [3] (mouse, pooled mouse hepatocytes, 1 μM, 0.25 × 10^6 cells/mL, read-out: Mouse Hepatocytes t1/2) it was over 3 h. Moreover, in [3], the “stable in murine hepatocytes for” value is on record as over 3 h. This compound had a hepatocyte CLint at 1 µM in [3] (mouse, pooled mouse hepatocytes, 1 μM, 0.25 × 10^6 cells/mL) of under 5.1 µL/min/1e6 cells. Also, the fraction unbound in data set [4] is 0.0037. The same compound displayed a solubility in “physchem” of 20 µM (≈ 16.8 µg/mL).
